From article PMC9686516, “Pharmacokinetic Characteristics of Nebulized Colistimethate Sodium Using Two Different Types of Nebulizers in Critically Ill Patients with Ventilator-Associated Respiratory Infections” (Antibiotics, 2022)

Conditions: in vivo
Procedure: Subjects were medically followed during the nebulization phase and the post-nebulization period for the development of side effects, especially those related to the respiratory system. In cases of significant hypoxemia and/or bronchospasm, the nebulization and lavage processes were suspended, and the patient was treated as clinically indicated.

colistimethate sodium [CMS]
deterioration of oxygenation during the nebulization: no instances of clinically important deterioration of oxygenation
